Assay results taken from ChEMBL document CHEMBL3832086, “DailyMed|setid=1c5502c7-7731-4d3e-b4fe-7fd44dd5908b | UROXATRAL - alfuzosin hydrochloride tablet, extended release|Physicians Total Care, Inc”.

How the values were obtained:
[1] = Evaluation of pharmacokinetic parameters for Alfuzosin hydrochloride following multiple oral or intravenous administration of Alfuzosin hydrochloride.; assay type: ADME, organism-based; parameters: dose 10 mg, route oral; conditions: human, in vivo, dosed compound id 46, dosed compound name ALFUZOSIN HYDROCHLORIDE, regimen Multiple dose, tissue Plasma
[2] = Evaluation of absolute bioavailability of Alfuzosin hydrochloride following oral administration of 10 mg Alfuzosin hydrochloride tablets under fed conditions.; assay type: ADME, organism-based; conditions: human, in vivo, at 10 mg, dietary status Fed, dosed compound id 46, dosed compound name ALFUZOSIN HYDROCHLORIDE, regimen Single dose, tissue Plasma

COc1cc2nc(N(C)CCCNC(=O)C3CCCO3)nc(N)c2cc1OC.Cl (stereo unspecified) [ALFUZOSIN HYDROCHLORIDE]
Cmax ([1]; po, 10 mg, dietary status Fed): 13.6 ng/mL
AUC ([1]; po, 10 mg, dietary status Fed, read-out: AUC(0-24)): 194 ng·h/mL
Tmax ([1]; dietary status Fed, dose 10 mg, route oral): 8 h
half-life ([1]; dose 10 mg, route oral): 10 h
Vd ([1]; gender male, route iv): 3.2 L/kg
bioavailability [2]: 49%
